# What was measured:
# [1] = tested on: EMEG32 heterozygous mouse embryonic fibroblast cells; experiment: Cell proliferation growth curves over 5 days and western blot, EMEG32 heterozygous fibroblasts; type: cell-based; settings: 50 μM, 5 days
# Description: (§1) (A) Cell proliferation curves over the course of 5 days for CHO cells following no (circles), 50 μM Ac-GlcNAc (squares) or 50 μM Ac-5SGlcNAc (triangles) treatment. The error bars indicate the deviation from the mean for triplicate measurements. […] Upper panel, probed with anti-O-GlcNAc antibody (CTD110.6); lower panel, probed with anti-actin antibody. (B) Cell proliferation curves over the course of 5 days for EMEG heterozygous mouse embryonic fibroblast cells following no (circles), 50 μM Ac-GlcNAc (squares) or 50 μM Ac-5SGlcNAc (triangles) treatment. The error bars indicate the deviation from the mean for triplicate measurements. […] Upper panel, probed with anti-O-GlcNAc antibody (CTD110.6); lower panel, probed with anti-actin antibody. (C) Western blots of CHO cell lysates following no (C) or Ac-5SGlcNAc administration at 50 μM for 4 days. Probed with (from top to bottom) anti-Spl antibody, anti O-GlcNAc (CTD110.6) antibody and anti-actin antibody. Full blot of the anti-Sp 1 is shown in panel (d). (D) Western blots of CHO cell lysates following no (C) or Ac-5SGlcNAc administration at 50 μM for 4 days. The full blot probed with anti-Spl antibody is shown. (E) Western blots of COS-7 cell lysates following no (C) or 50 μM Ac-5SGlcNAc treatment for 24 h. Following treatment, the media was replaced with no inhibitor, and cells were harvested at the time points indicated (between 0 and 24 h). Upper panel, probed with anti-O-GlcNAc antibody (CTD110.6); lower panel, probed with anti-actin antibody.
# (§2) Cellular responses to Ac-5SGlcNAc (9) treatment and consequent decreases in O-GlcNAc levels were evaluated. […] We quantitatively evaluated cell proliferation and established growth curves over the course of 5 days in both CHO and EMEG32 heterozygous mouse embryonic fibroblast cells treated with 50 μM Ac-5SGlcNAc (9), 50 μM Ac-GlcNAc (G), or vehicle (FIGS. 5A-B).
# transcription factor Sp1 = experiment: Western blot of Sp1 levels in CHO cells; type: cell-based, Chinese hamster; settings: 50 μM, 4 days
# Description: as §1, with “(D) Western blots of CHO cell lysates following no (C) or Ac-5SGlcNAc administration at 50 μM for 4 days. The full blot probed with anti-Spl antibody is shown. (E) Western blots of COS-7 cell lysates following no (C) or 50 μM Ac-5SGlcNAc treatment for 24 h. Following treatment, the media was replaced with no inhibitor, and cells were harvested at the time points indicated (between 0 and 24 h). Upper panel, probed with anti-O-GlcNAc antibody (CTD110.6); lower panel, probed with anti-actin antibody.” left out
# as §2
# [2] = tested on: O-GlcNAc levels in mice tissues; experiment: O-GlcNAc levels in mouse tissues after intraperitoneal dosing; type: in vivo; settings: 300 mg/kg intraperitoneally, 16 hours
# Description: Ac-5SGlcNAc 9 and the deprotected analogue with the hexyl substituent at the C2 position 28 have been analyzed for effectiveness at decreasing O-GlcNAc levels in mice. Pilot studies were conducted with mice dosed in triplicate with either compound or vehicle alone. Compounds were dosed at 300 mg/kg intraperitoneally using 75% DMSO as vehicle for delivery of 9 and phosphate-buffered saline (PBS) for delivery of 28. Mice were euthanized using a CO2 chamber after 16 hours exposure to either compound, and tissues (liver, lung, heart, kidney, spleen, pancreas, brain, blood, fat and muscle) harvested and flash frozen in liquid nitrogen. Frozen tissues were ground using a pestle and mortar, and resuspended in cell lysis buffer (50 mM NaH2PO4, 150 mM NaCl, 0.1% SDS, 1% NP-40, 0.25% sodium deoxycholate, 1 mM EDTA, 30 mM sodium fluoride, 30 mM β-glycerophosphate, 5 mM sodium pyrophosphate, 1 mM Thiamet-G, protease inhibitor cocktail (Roche)) at a concentration of 100 mg tissue1 mL buffer prior to homogenization. Homogenates were centrifuged at 13,000 rpm for 20 min, the supernatant removed, added to 2×SDS-PAGE loading buffer and boiled for […]. SDS-PAGE and western blots were performed using standard procedures. Blots were probed using anti-O-GlcNAc antibody (CTD110.6, Santa Cruz Biotechnology) and anti-actin antibody for a loading control.
# OGT = experiment: Western blot of OGT levels in treated COS-7 cells; type: cell-based, African green monkey; settings: 50 μM, 24 h
# Description: Westernlectin blots: Samples were run on 10% SDS polyacrylamide gels and transferred onto nitrocellulose membranes (Biorad). Membranes were blocked for 1 h in PBS containing 0.1% Tween-20 (PBS-T) containing 1% (unless otherwise stated) bovine serum albumin (BSA), and probed with the appropriate primary antibody or lectin in 1% BSA in PBS-T overnight at 4° C. Blots were washed for 1 hr with PBS-T, and blocked for a further 30 min with 1% BSA in PBS-T at room temperature. They were then probed with the appropriate horseradish peroxidise (HRP)-conjugated secondary antibodyprobe in 1% BSA in PBS-T at room temperature for 1 h, followed by washing in PBS-T for 1 h. Blots were developed with SuperSignal West Pico Chemiluminescent Substrate (Pierce) and exposed to CL-XPosure film (Pierce). Densitometry was performed using ImageQuant 5.2 (Molecular Dynamics), and fits to the data were made using GRAFIT^41.
# Antibodieslectins: O-GlcNAc levels were assessed primarily using CTD110.6 (Covance), but RL2 (Abcam) and HGAC85 (Abcam) were also tested. Actin was probed using JLA20 (Developmental Studies Hybridoma Bank). OGA levels were assessed using a polyclonal anti-OGA antibody which was a kind gift from Dr. Gerald Hart and OGT levels using H-300 (Santa Cruz Biotechnology). nup62 was probed using mAb 414 (Covance). […]
structure (smiles),measurement,setting,value
"CC(=O)NC1C(OC(C)=O)SC(COC(C)=O)C(OC(C)=O)C1OC(C)=O [Compound 9, N-Acetyl-1,3,4,6-tetra-O-acetyl-α-D-5-thio-glucosamine]",growth rate,[1]; EMEG32 heterozygotes,indistinguishable but were both lower than vehicle treated cells
same,O-GlcNAc levels at last time point of growth curve,[1]; EMEG heterozygous cells,O-GlcNAc levels are still significantly decreased in cells treated with Ac-5SGlcNAc
same,Sp1 levels,transcription factor Sp1,decreases were observed in the levels of transcription factor Sp1
same,O-GlcNAc levels in tissues,[2],"effective at decreasing O-GlcNAc levels during the 16 hour dosing period in the liver, lung, heart, kidney, spleen, pancreas, fat and muscle"
same,OGT levels,OGT,increase in OGT levels

# From patent publication US20150259371A1, “METHODS AND COMPOUNDS FOR INHIBITING GLYCOSYLTRANSFERASES” (SIMON FRASER UNIVERSITY, priority 2010, published 2015)
